Results reported in patent US12528774B2, “Thiosemicarbazone compounds and uses thereof” (The Regents of the University of California, priority 2019, dated 2026).

Columns and labels:
[1] = molecular target: dihydroorotate dehydrogenase (DHODH) (Homo sapiens, UniProt Q02127); experiment: Recombinant DHODH activity assay; assay type: biochemical; settings: HCT-13 100 nM, 1 μM; Cu(II) 20 μM
Experimental: FIG. 5A: rescue of HCT-13 (25 nM)-induced cell death by Uridine (rU) (200 μM), Pyruvate (1 mM), or both following 48h of treatment. FIG. 5B: measurement of DHODH activity using recombinant DHODH assay following treatment with indicated perturbations for 2 min. DHODH inhibitor used: NITD-982-1 μM; HCT-13-100 nM, 1 μM, (100 nM data shown); Cu(II)—20 μM. (mean±SD, n=2, Student t-test, * P<0.05).
DHODH activity: Recombinant protein was incubated in an aqueous solution (total volume, 1.0 mL) containing 500 μM DHO (Sigma, D1728), 200 mM K2CO3-HCl (pH 8.0), 0.2% triton x-100, and 100 μM coenzyme Q10 (Sigma, C9538) at 37° C. for 0, 15, 30, 45, or 60 min. An aliquot (100 μL) of the mixture of enzyme reaction mixture or cell/tissue lysate was mixed with 100 μL of 0, 0.5, or 1.0 μM orotic acid, 50 μL of H2O, 250 μL of 4.0 mM 4-TFMBAO (Sigma, 422231), 250 μL of 8.0 mM K3[Fe(CN)6] (Sigma, 244023), and 250 μL of 80 mM K2CO3 (Sigma, P5833) and then heated at 80° C. for 4.0 min. The reaction was stopped by cooling in an ice-water bath and the absorbance was measured with a spectrofluorometer (FP-6300 Jasco, Tokyo, Japan): excitation and emission wavelengths were 340 nm and 460 nm, respectively.

[2] = tested on: p185BCR-ABL Arf−/− pre-B-ALL cells; experiment: In vivo efficacy, systemic p185 pre-B ALL model; parameters: species or system mouse; settings: 1 mg/kg q.d. 8 days; fourteen days after treatment initiation
Description: FIG. 9A: dose and schedule for the efficacy study in p185 pre-B-ALL mice. FIGS. 9B-9D: bioluminescence images and quantification of whole body radiance of mice treated with HCT-16 (n=5) or vehicle control (n=10). FIG. 9E: dose and schedule for the efficacy study in MV4-11 AML bearing mice. FIGS. 9F-9H: bioluminescence images and quantification of whole body radiance of mice treated with HCT-16 (n=5) or vehicle control (n=5). (mean±SD, n=2, student's paired t-test, * P<0.05; ** P<0.01; *** P<0.001). q.d.=once/day. For purposes of the disclosure, Cu(HCT-13) is the same as compound HCT-16 (i.e., copper complexed with HCT-13).
The in vivo efficacy and tolerability of HCT-13 was investigated. […] Both p185 and MV4-11 cell lines were engineered to express luciferase to monitor the systemic leukemic burden by bioluminescence imaging (BLI). (Boulos et al, Blood 2011, 117(13):3585-3595; Rahmani et al, Cancer Res. 2018, 78(11):3075-3086). To bypass the need for systemic copper supplementation, a one-to-one complex of copper and HCT-13 (i.e., HCT-16) was prepared for in vivo administration according to reported procedures for similar compounds and characterized by UV-HPLC and HR-MS. […]
In vivo leukemia models and treatment regimens. […] The leukemic burden was monitored using bioluminescence imaging. […]

[3] = tested on: PDAC (MIAPACA2, CFPAC-1) and PC (C4-2) cell lines; experiment: Cell death assays (Annexin V/PI, trypan blue) of HCT13 with ATR inhibition; assay type: cell-based; settings: ATRi 250 nM VE-822, Cu(II) 20 μM, 72 h
Experimental: FIGS. 4A-4G show the chemical genomics screen identifying the replication stress response pathway as an actionable co-dependency of HCT13-treated cells. FIG. 4A: experimental design of a synthetic lethality screen using a library of protein kinase inhibitors against HCT13-treated cells in the presence of Cu(II) (20 μM). FIG. 4B: radar plot of screen results. FIG. 4C: z-score values for kinase inhibitors within the DNA damage response/replication stress response (DDR/RSR) pathway module. FIG. 4D: representative immunoblot of replication stress and cell death biomarkers in MIAPACA2 PDAC cells treated with HCT13 (10 nM)+Cu(II) (20 μM). […] (mean±SD, n=2, one-way ANOVA corrected for multiple comparisons by Bonferroni adjustment, * P<0.05; ** P<0.01; *** P<0.001; **** P<0.0001).
FIGS. 6A-6C provide the identification of resistance mechanisms to HCT13 using a synthetic lethality screen. […] (mean±SD, n=2, one-way ANOVA corrected for multiple comparisons by Bonferroni adjustment, * P<0.05; ** P<0.01; *** P<0.001; **** P<0.0001). […]
Viability/Apoptosis assay: Viable cells were measured by Trypan blue staining using vi-cell counter (Beckman Coulter, CA, USA). […]

dihydroorotate dehydrogenase (DHODH), sequence (Q02127 whole entry, species assumed): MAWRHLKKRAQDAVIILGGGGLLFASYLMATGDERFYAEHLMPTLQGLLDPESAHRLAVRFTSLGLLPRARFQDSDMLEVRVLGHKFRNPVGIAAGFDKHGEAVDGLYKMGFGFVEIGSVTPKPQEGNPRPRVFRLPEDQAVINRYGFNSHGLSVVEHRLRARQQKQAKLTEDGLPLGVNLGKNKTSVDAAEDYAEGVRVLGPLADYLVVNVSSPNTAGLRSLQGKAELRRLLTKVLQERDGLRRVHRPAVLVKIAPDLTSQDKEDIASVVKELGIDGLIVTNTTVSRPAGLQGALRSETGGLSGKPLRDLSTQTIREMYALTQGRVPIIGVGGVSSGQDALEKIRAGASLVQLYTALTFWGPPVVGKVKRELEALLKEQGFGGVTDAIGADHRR

CN(C)C(=S)N/N=C/c1nccc2cc(F)ccc12 (mixture of isomers) [HCT13, (E)-2-((6-Fluoroisoquinolin-1-yl)methylene)-N,N-dimethylhydrazine-1-carbothioamide and (Z)-2-((6-Fluoroisoquinolin-1-yl)methylene)-N,N-dimethylhydrazine-1-carbothioamide]
affinity for DHODH [1]: did not demonstrate affinity
systemic disease burden versus control group (bioluminescence) [2]: significantly lower systemic disease burden
interaction with ATR inhibition (cell death) [3]: synergistic interaction
